Data as given in patent US20250115563A1, “MODULATORS OF THE INTEGRATED STRESS PATHWAY” (Calico Life Sciences LLC, priority 2017, published 2025).

Tested on: HEK293T cells carrying the ATF4 luciferase reporter
Assay: ATF4-Luc assay (in vitro model of VWMD)
Assay type: cell-based
Details: Homo sapiens, HEK-293T; HEK293T cells with ATF4 5'-UTR firefly luciferase reporter; 1 μg/mL tunicamycin; 7 hours; One Glo luminescence
Method: In order to test exemplary compounds of the invention in a cellular context, a stable VWMD cell line was first constructed. The ATF4 reporter was prepared by fusing the human full-length ATF4 5′-UTR (NCBI Accession No. BC022088.2) in front of the firefly luciferase (FLuc) coding sequence lacking the initiator methionine as described in Sidrauski et al (eLife 2013). The construct was used to produce recombinant retroviruses using standard methods and the resulting viral supernatant was used to transduce HEK293T cells, which were then subsequently selected with puromycin to generate a stable cell line.
HEK293T cells carrying the ATF4 luciferase reporter were plated on polylysine coated 384-well plates (Greiner Bio-one) at 30,000 cells per well. Cells were treated the next day with 1 μg/mL tunicamycin and 200 nM of a compound of Formula (I) for 7 hours. Luminescence was measured using One Glo (Promega) as specified by the manufacturer. Cells were maintained in DMEM with L-glutamine supplemented with 10% heat-inactivated FBS (Gibco) and Antibiotic-Antimycotic solution (Gibco).
Table 2 below summarizes the EC50 data obtained using the ATF4-Luc assay for exemplary compounds of the invention.

SMILES	EC50 [nM]
O=C(COc1ccc(Cl)c(F)c1)NC12CCC(c3nnc(Oc4ccc(Cl)c(F)c4)o3)(CC1)[C@@H](O)C2 [Compound 172, 2-(4-chloro-3-fluorophenoxy)-N-{(3S)-4-[5-(4-chloro-3-fluorophenoxy)-1,3,4-oxadiazol-2-yl]-3-hydroxybicyclo[2.2.2]octan-1-yl}acetamide]	< 50
O=C(COc1ccc(Cl)c(F)c1)NC12CCC(c3nnc(Oc4ccc(Cl)c(F)c4)o3)(CC1)C(O)C2 (stereo not drawn) [Compound 170, 2-(4-chloro-3-fluorophenoxy)-N-{4-[5-(4-chloro-3-fluorophenoxy)-1,3,4-oxadiazol-2-yl]-3-hydroxybicyclo[2.2.2]octan-1-yl}acetamide]	< 50
O=C(COc1ccc(Cl)c(F)c1)NC12CCC(c3nnc(Oc4ccc(Cl)c(F)c4)o3)(CC1)[C@H](O)C2 [Compound 171, 2-(4-chloro-3-fluorophenoxy)-N-{(3R)-4-[5-(4-chloro-3-fluorophenoxy)-1,3,4-oxadiazol-2-yl]-3-hydroxybicyclo[2.2.2]octan-1-yl}acetamide]	< 50
